The values below are quoted from earlier work in patent US20190201418A1, “TREATMENT OF UTERINE FIBROIDS BY INTRAVAGINAL ADMINISTRATION OF A LOW DOSE OF SELECTIVE PROGESTERONE RECEPTOR MODULATOR (SPRM), ANTI-PROGESTIN, OR ANTI-PROGESTATIONAL AGENT” (ARSTAT, INC., priority 2011, published 2019).

One data set relates to liver enzymes. The conditions noted are these: oral.
The test system of data set [1] is endometrial lining of the uterus. The note with it: oral.
The next data set relates to glucocorticoid blockade. The conditions noted are these: in vivo.
Data set [2] relates to symptomatic uterine fibroids. The note with it: oral 5-mg and 10-mg tablets, Phase III.
Where [3] appears, read: oral mifepristone 10 mg/day or higher.

For the compound `COCC(=O)[C@@]1(OC(C)=O)CC[C@H]2[C@@H]3CCC4=CC(=O)CCC4=C3[C@@H](c3ccc(N(C)C)cc3)C[C@@]21C` [CDB-4124], the “safety finding leading to suspension of the Phase III studies” value in the data set with liver enzymes was “significant increases in liver enzymes”.

Turning to `COC[C@]1(OC)CC[C@H]2[C@@H]3CCC4=CC(=O)CCC4=C3[C@@H](c3ccc(/C=N/O)cc3)C[C@@]21C` [asoprisnil], in data set [1], the “safety finding leading to termination of the Phase III studies” value was “changes in the endometrial lining of the uterus that resulted in additional invasive procedures in some patients”.

With `CC#C[C@]1(O)CC[C@H]2[C@@H]3CCC4=CC(=O)CCC4=C3[C@@H](c3ccc(N(C)C)cc3)C[C@@]21C` [mifepristone], the “dose at which glucocorticoid blockade is reported” value in the data set with glucocorticoid blockade is given as at least 50 mg. In addition, the “reduction of uterine volume and incidence of amenorrhea” value with uterine fibroids (oral mifepristone 2.5 mg/day) is “appreciably smaller reduction of uterine volume and a lower incidence of amenorrhea”. Besides, the “ability to reduce uterine volume and eliminate fibroid-related symptoms” value with uterine fibroids (oral mifepristone 5 mg) is “limited”. Moreover, in the data set with uterine fibroids (setting [3]), the “incidence of side effects (endometrial hyperplasia, hot flashes, elevated liver enzymes)” value was “seems to be greater than desired”; the “reduction of uterine and fibroid volumes and related symptoms” value was “effective in the reduction of uterine and fibroid volumes and related symptoms”.

As for `CC(=O)O[C@]1(C(C)=O)CC[C@H]2[C@@H]3CCC4=CC(=O)CCC4=C3[C@@H](c3ccc(N(C)C)cc3)C[C@@]21C` [ulipristal acetate], the “efficacy and safety in the treatment of symptomatic uterine fibroids” value in data set [2] is “confirmed the efficacy and safety”.
